The values that follow come from patent US8257755B2, “Metabolic syndrome-improving agent and medicine, supplement, functional food and food additive containing the same” (ARKRAY, Inc., priority 2005, dated 2012).

The target in assay [1] is T1, human PPARγ ligand-binding site (Homo sapiens, UniProt P37231).
T1 construct: expressed in transfected cells; host or cells: CV-1 cells (African green monkey kidney)
T1 sequence (P37231 204-505): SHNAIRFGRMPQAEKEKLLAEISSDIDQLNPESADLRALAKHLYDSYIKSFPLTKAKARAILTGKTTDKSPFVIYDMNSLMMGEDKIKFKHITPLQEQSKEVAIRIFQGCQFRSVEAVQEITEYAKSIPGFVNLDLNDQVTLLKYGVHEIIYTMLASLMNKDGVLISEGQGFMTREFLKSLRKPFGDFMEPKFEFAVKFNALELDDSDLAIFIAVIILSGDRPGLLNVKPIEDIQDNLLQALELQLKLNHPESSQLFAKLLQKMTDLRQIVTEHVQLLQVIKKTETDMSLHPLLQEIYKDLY
Kind of assay: PPARγ ligand activity, GAL4-hPPARγ luciferase reporter assay in CV-1 cells. The assay is classed as cell-based. The conditions noted are these: for PPARγ ligand activity: relative to non-treatment control (DMSO) = 100, average ± standard error, n=4. As to the method:
CV-1 cells (cultured cells derived from kidneys of male African green monkeys) were implanted on 24-well culture plates so as to be […]/well and cultured at 37° C. in 5% CO2 for 24 hours. As a medium, DMEM (Dulbecco's Modified Eagle Medium; manufactured by GIBCO) containing 10% FBS (fetal bovine serum) and a 10 mg/mL penicillin streptomycin solution was used. Using the Lipofectamine system (trade name; manufactured by Invitrogen Corporation), pM-hPPARγ and p4×UASg-tk-luc were transfected. The above-noted pM-hPPARγ was a chimeric protein-expression plasmid binding GAL4 gene (amino acid sequence 1-147) and human PPARγ ligand-binding site gene (amino acid sequence 204-505), whereas the above-noted p4×UASg-tk-luc was a reporter plasmid containing four copies of a responsive element (UAS) of GAL 4 upstream of a luciferase gene. About 24 hours after the transfection, samples of bergamottin at respective concentrations (0.1, 1.0, 10, 50 and 100 μM) were added to the above-described media, followed by 24 hour incubation. The above-noted samples were prepared by dissolving bergamottin in dimethyl sulfoxide (DMSO). Instead of the above-noted sample, DMSO was used for non-treated control media. After the incubation, measurement was made using a Dual-Luciferase Reporter Gene Assay system (trade name; manufactured by Promega Corporation).
Similarly to the measurement group, as a control group, pM (a plasmid from which PPARγ ligand-binding site gene was removed) was used for measurement instead of pM-hPPARγ. For each sample, the ratio between average luminescence intensities of the measurement group and the control group (n=4) (measurement group/control group) was calculated, and an activity relative to the non-treatment control was determined as the PPARγ ligand activity of the sample.
(In a reporter assay the amount or activity of a reporter protein is the signal.)

The subject of assay [2] is HepG2 cells (human hepatic cells). Description: VLDL secretion inhibition experiment in HepG2 cells (apoB100 ELISA). The assay is classed as cell-based. The settings on record: 30 hours, measurement group/control group, DMSO control = 100, average ± standard error. As to the method: A sandwich ELISA that recognized human apoB100 in the VLDL as an antigen was used. First, 100 μL of Moab×LDL Apolipoprotein B (ApoB) (manufactured under MONOSAN®) was dispensed in each well of ELISA PLATE, and the plate was sealed with a sterile seal and then allowed to stand still at 4° C. overnight. In the following, all the dispensing mentioned is for a single well. On the next day, 200 μL of Zepto Block (trade name, manufactured by ZeptoMetrix Corporation) was dispensed, and then the above-noted plate was sealed and allowed to stand still for 2 hours at room temperature for blocking. Subsequently, 100 μL of the medium and the VLDL standard solution were dispensed, and then the plate was sealed and allowed to stand still for 1 hour at room temperature. Washing with 200 μL of PBST and absorption using an aspirator were carried out five times in total. Then, 100 μL of Affinity Purified Anti-Apolipoprotein B (manufactured by Rockland Immunochemicals, Inc.) that had been diluted with PBS by 1000 times was dispensed and allowed to stand still for 1 hour at room temperature. After washing similarly to the above, 100 μL of Donkey Anti-goat IgG HRP (manufactured by Promega Corporation) that had been diluted with PBS by 5000 times was dispensed and allowed to stand still for 1 hour at room temperature. […] 100 μL of 1M phosphoric acid solution was added to the above-noted mixture solution, and the absorbance at 450 nm was measured using wallac ARVOsx (trade name, PerkinElmer Life Sciences, PerkinElmer, Inc.). […]
HepG2 was cultured to 80% to 90% confluence in a 100 mm/Collagen-Coated Dish (trade name, manufactured by Iwaki Glass Works, Co.). […] Using this collected medium, the number of living cells were counted, and the Western blotting and the ELISA measurement were carried out similarly to the above. From the result of the ELISA, the ratio of the VLDL secretion amount between the measurement group and the non-treated control group (measurement group/control group) was calculated for each sample.
On the technique in general: In an ELISA, binding on a coated surface is turned into a signal by an enzyme label.

As for `CC(C)=CCC/C(C)=C/COc1c2ccoc2cc2oc(=O)ccc12` [Bergamottin, bergamottin], the PPARγ ligand activity was 90 ± 5.7 in assay [1] (0.1 μM); 132 ± 12.0 in assay [1] (1.0 μM); 388 ± 41.4 in assay [1] (10 μM); 961 ± 72.1 in assay [1] (50 μM); 1032 ± 248.3 in assay [1] (100 μM). The “PPARγ activity level compared with catechin” value in assay [1] (no catechin data shown) is listed as “higher than that of catechin”. Also, the “VLDL secretion ratio (%)” value in assay [2] (10 μM) worked out at 63.4 ± 10.94%; in assay [2] (20 μM) it was 65.5 ± 13.21%; in assay [2] (50 μM), 45.9 ± 6.29%.
